Experimental data from PMC5472308, “Characterization of the regulation of a plant polysaccharide utilization operon and its role in biofilm formation in Bacillus subtilis” (PLoS ONE, 2017).

Molecular target: T1, LacZ (Escherichia coli, UniProt P00722)
T1 construct: lacZ reporter of plasmid pDG268 (PganS-lacZ at amyE) expressed in B. subtilis YC1074 (ganR R20H, ganA deleted); cleared sonicated lysate
Type: biochemical
Conditions: 2.5 mM ONPG; Z buffer; qualitative

T1 sequence (P00722 2-1024): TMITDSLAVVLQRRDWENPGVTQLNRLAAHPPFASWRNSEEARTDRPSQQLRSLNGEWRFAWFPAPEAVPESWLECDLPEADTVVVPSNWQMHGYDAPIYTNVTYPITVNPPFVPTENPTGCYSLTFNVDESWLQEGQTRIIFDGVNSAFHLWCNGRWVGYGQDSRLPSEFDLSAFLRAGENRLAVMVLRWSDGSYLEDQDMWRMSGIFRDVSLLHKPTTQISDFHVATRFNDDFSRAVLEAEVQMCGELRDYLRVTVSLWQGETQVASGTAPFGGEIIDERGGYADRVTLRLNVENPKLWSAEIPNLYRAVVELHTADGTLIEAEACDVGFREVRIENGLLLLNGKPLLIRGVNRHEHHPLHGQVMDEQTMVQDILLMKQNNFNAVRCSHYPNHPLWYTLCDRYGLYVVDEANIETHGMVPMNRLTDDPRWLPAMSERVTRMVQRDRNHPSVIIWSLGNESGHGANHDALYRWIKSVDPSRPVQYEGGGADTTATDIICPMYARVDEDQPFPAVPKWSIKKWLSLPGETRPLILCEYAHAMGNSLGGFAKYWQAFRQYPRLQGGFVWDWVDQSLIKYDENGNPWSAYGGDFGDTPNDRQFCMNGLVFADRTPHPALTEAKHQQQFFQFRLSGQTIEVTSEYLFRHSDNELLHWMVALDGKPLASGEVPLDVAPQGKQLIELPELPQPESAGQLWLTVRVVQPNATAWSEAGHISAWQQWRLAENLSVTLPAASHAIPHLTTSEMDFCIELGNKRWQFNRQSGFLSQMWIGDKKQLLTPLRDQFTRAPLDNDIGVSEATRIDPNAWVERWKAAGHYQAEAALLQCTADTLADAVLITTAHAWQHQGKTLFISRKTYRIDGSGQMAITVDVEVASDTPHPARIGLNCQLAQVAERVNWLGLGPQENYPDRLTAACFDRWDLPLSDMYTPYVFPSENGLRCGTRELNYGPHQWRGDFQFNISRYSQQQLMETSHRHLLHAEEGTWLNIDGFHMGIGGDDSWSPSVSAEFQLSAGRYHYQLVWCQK

In the case of `OC[C@H]1OC(O)[C@H](O)[C@@H](O)[C@H]1O` (stereo partly shown) [galactose], the “% activity with 2.5-20 mM galactose” value is reported as “we only observed very weak inhibition of catalytic activities of LacZ”.
